Experimental data from publication PMC10931659, “Structural Characterization and Functional Analysis of Mevalonate Kinase from Tribolium castaneum (Red Flour Beetle)” (International Journal of Molecular Sciences, 2024).

How the values were obtained:
TcMevK [1] = target: T1, TcMevK (Tribolium castaneum, UniProt D2A4R0, V264A); experiment: intrinsic fluorescence quenching, excitation […] nm; format: binding; conditions: read-out: KD Value for Mev
T1 construct: gene AUGUSTUS-3.0.2_15408; N-terminal His6 tag (pET28a-derived vector), expressed in E. coli BL21(DE3), Ni-chelating and Superdex 200 purified
T1 sequence (D2A4R0 1-396 V264A): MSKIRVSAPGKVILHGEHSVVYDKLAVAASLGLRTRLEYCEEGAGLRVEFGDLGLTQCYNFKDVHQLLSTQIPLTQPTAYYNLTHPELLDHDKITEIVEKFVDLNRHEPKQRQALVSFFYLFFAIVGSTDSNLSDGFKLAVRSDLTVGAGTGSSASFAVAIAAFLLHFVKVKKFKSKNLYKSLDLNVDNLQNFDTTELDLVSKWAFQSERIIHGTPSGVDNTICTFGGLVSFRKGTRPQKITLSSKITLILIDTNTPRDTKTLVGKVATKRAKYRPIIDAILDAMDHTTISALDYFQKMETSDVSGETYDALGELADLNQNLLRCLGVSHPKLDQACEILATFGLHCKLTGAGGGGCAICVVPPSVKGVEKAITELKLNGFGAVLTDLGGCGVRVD

TcMevK [2] = target: T2, TcMevK (Tribolium castaneum, UniProt D2A4R0, K234A); experiment: intrinsic fluorescence quenching, excitation […] nm; format: binding; conditions: read-out: KD Value for Mev
T2 construct: gene AUGUSTUS-3.0.2_15408; N-terminal His6 tag (pET28a-derived vector), expressed in E. coli BL21(DE3), Ni-chelating and Superdex 200 purified
T2 sequence (D2A4R0 1-396 K234A): T1 sequence (D2A4R0 1-396 V264A)

TcMevK [3] = target: T3, TcMevK (Tribolium castaneum, UniProt D2A4R0, D220A); experiment: intrinsic fluorescence quenching, excitation […] nm; format: binding; conditions: read-out: KD Value for Mev
T3 construct: gene AUGUSTUS-3.0.2_15408; N-terminal His6 tag (pET28a-derived vector), expressed in E. coli BL21(DE3), Ni-chelating and Superdex 200 purified
T3 sequence (D2A4R0 1-396 D220A): T1 sequence (D2A4R0 1-396 V264A)

TcMevK [4] = target: T4, TcMevK (Tribolium castaneum, UniProt D2A4R0, S217A); experiment: intrinsic fluorescence quenching, excitation […] nm; format: binding; conditions: read-out: KD Value for Mev
T4 construct: gene AUGUSTUS-3.0.2_15408; N-terminal His6 tag (pET28a-derived vector), expressed in E. coli BL21(DE3), Ni-chelating and Superdex 200 purified
T4 sequence (D2A4R0 1-396 S217A): T1 sequence (D2A4R0 1-396 V264A)

TcMevK [5] = target: T5, TcMevK (Tribolium castaneum, UniProt D2A4R0, K11A); experiment: intrinsic fluorescence quenching, excitation […] nm; format: binding; conditions: read-out: KD Value for Mev
T5 construct: gene AUGUSTUS-3.0.2_15408; N-terminal His6 tag (pET28a-derived vector), expressed in E. coli BL21(DE3), Ni-chelating and Superdex 200 purified
T5 sequence (D2A4R0 1-396 K11A): T1 sequence (D2A4R0 1-396 V264A)

TcMevK [6] = target: T6, TcMevK (Tribolium castaneum, UniProt D2A4R0); experiment: intrinsic fluorescence quenching, excitation […] nm; format: binding; conditions: read-out: KD Value for Mev
T6 construct: gene AUGUSTUS-3.0.2_15408; N-terminal His6 tag (pET28a-derived vector), expressed in E. coli BL21(DE3), Ni-chelating and Superdex 200 purified
T6 sequence (D2A4R0 1-396): T1 sequence (D2A4R0 1-396 V264A)

TcMevK [7] = target: T7, TcMevK (Tribolium castaneum, UniProt D2A4R0, V21A); experiment: intrinsic fluorescence quenching, excitation […] nm; format: binding; conditions: read-out: KD Value for Mev
T7 construct: gene AUGUSTUS-3.0.2_15408; N-terminal His6 tag (pET28a-derived vector), expressed in E. coli BL21(DE3), Ni-chelating and Superdex 200 purified
T7 sequence (D2A4R0 1-396 V21A): T1 sequence (D2A4R0 1-396 V264A)

purified protein = substrate: C[C@@](O)(CCO)CC(=O)O; experiment: purified protein; format: biochemical, Tribolium castaneum; conditions: 5 mM ATP, 16 mM MgCl2, 75 mM KCl; Mev 0–500 μM; pH and temperature not stated for this assay

## C[C@@](O)(CCO)CC(=O)O [mevalonate]
TcMevK [1]
  Kd: 57.1 ± 1.83 µM
TcMevK [2]
  Kd: 89.5 ± 2.45 µM
TcMevK [3]
  Kd: 47.5 ± 2.17 µM
TcMevK [4]
  Kd: 70.2 ± 1.06 µM
TcMevK [5]
  Kd: 75.8 ± 0.84 µM
TcMevK [6]
  Kd: 30 ± 0.93 µM
TcMevK [7]
  Kd: 51.7 ± 2.16 µM

B1: TcMevK (Tribolium castaneum) (protein)
chain: T1 sequence (D2A4R0 1-396 V264A)
notes: N-terminal His6 tag (pET28a-derived vector), expressed in E. coli BL21(DE3), Ni-chelating and Superdex 200 purified
Purified protein
  Km: 32.71 ± 1.09 µM
